Test results: EP0606463B1, “NEUROMEDIN B RECEPTOR ANTAGONISTS” (The Administrators of The Tulane Educational Fund, priority 1992, dated 1994)
Where a SMILES comes first, the peptide text is derived from it. Bridges are numbered along the chain shown (N, C = ends). [ ]: non-standard residue; d: D form. 2Nal = N[C@@H](Cc1ccc2ccccc2c1)C(=O)O; d2Nal = N[C@H](Cc1ccc2ccccc2c1)C(=O)O

How the values were obtained:
GRP Receptor = target: T1, GRP Receptor (Rattus norvegicus, UniProt P52500); assay: Amylase release from rat pancreatic acini; format: cell-based; details: for Rat Pancreatic Acini Amylase Release Alone (10µM): analog 10 µM alone, no-additive control 4 ± 1; for Rat Pancreatic Acini Amylase Release Plus Bn(0.3 nM): analog 10 µM plus Bn 0.3 nM, Bn without analog 15 ± 1
T1 construct: from tissue; host or cells: dispersed pancreatic acini

rat NMB receptor = target: T2, rat NMB receptor (Rattus norvegicus, UniProt P24053); assay: Binding of 125I-[D-Tyr0]NMB to NMB-R transfected BALB 3T3 cells; details: for fold by which cyclo SS-octa was more potent than the analog: inhibition of ^125I-[Tyr^0]NMB binding to NMB-R transfected cells
T2 construct: a full length NMB-preferring bombesin receptor clone generated from rat esophagus; expressed in transfected cells; host or cells: BALB 3T3 cells
T2 sequence (P24053 1-390): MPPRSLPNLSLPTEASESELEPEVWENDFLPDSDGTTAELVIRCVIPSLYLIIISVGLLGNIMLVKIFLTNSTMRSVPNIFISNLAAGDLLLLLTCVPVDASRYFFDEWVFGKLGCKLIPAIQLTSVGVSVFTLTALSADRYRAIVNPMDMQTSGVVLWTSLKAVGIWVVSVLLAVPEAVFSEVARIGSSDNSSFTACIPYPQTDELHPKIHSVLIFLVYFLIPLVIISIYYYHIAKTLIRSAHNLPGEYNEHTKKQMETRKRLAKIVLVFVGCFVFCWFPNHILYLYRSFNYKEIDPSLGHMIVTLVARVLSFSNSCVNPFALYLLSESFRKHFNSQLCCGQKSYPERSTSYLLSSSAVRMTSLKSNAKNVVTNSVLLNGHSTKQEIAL
Procedure: (§1) Cells were passaged every 3-4 days at confluence, using 0.1% trypsin in 1 mM EDTA. Rat glioblastoma C-6 tumor cells were maintained similarly and were passaged weekly at confluence. Both cell lines were cultured at 37°C in a 5% CO2 atmosphere. Rat AR 42J pancreatic acinar cells were cultured in Dulbecco's modified Eagle's medium (DMEM) without antibiotics and supplemented with 10% (vol/vol) fetal calf serum. The incubation atmosphere consisted of 10% CO2-90% humidified air at 37°C.

NMB Receptor = target: T3, NMB Receptor (Rattus norvegicus, UniProt P24053); assay: [3H]inositol phosphates (IP) in NMB-R transfected cells; format: cell-based; details: for NMB-R Transfected Cells [^3H]IP Alone (10 µ M): analog 10 µM alone, no-additive control 13 ± 3; for NMB-R Transfected Cells [^3H]IP Plus NMB (3 nM): analog 10 µM plus NMB 3 nM, NMB without analog 186 ± 58
T3 construct: a full length NMB-preferring bombesin receptor clone generated from rat esophagus; expressed in transfected cells; host or cells: BALB 3T3 cells
T3 sequence (P24053 1-390): T2 sequence (P24053 1-390)
Procedure: as §1, with “As described previously [Wada, E., et al. Neuron 6:421 (1991)], BALB 3T3 cells expressing a stably transfected rat NMB receptor (NMB-R transfected cells) were obtained using calcium phosphate precipitation of a full length NMB-preferring bombesin receptor clone generated from rat esophagus and subcloned into a modified version of the pCD2 plasmid. Cells” for “Cells”
Total phosphoinositides in C-6 cells and in NMB-R transfected cells were determined as described previously, with minor modifications [Benya, R. V. et al. Mol. Pharmacol. 42:1058 (1992); and Wang, L-H. et al. Biochem. J. 286:641 (1992)]. Cells were grown to confluence in 24-well plates and then loaded with 100 µCi/ml myo-[2-^3H]inositol in Dulbecco's modified essential medium with 2% fetal bovine serum at 37°C for 48 hrs. Cells were washed and incubated in phosphoinositide buffer (standard buffer additionally containing 10 mM LiCl, 20 mM HEPES, 2 mM CaCl2, 2% BSA, and 1.2 mM MgSO4) for 15 min and then for 60 min at 37°C with agonists at various concentrations or with 3 nM NMB (a half-maximal effective concentration) and possible antagonists at different concentrations. Reactions were halted using ice-cold 1% HCl in methanol, and the inositol phosphates (IP) were isolated as described previously [Bologna, M. et al. Cancer 63:1714 (1989); and Endo, T. et al. J. Endocrinol. 131:313 (1991)]. Briefly, after loading of the anion exchange column, free [^3H]glycerophosphorylinositol was removed by washing with 5 mM disodium tetraborate in 60 mM sodium formate. Total [^3H]inositol phosphates were then eluted using 100 mM formic acid in 1.0 M ammonium formate as described previously [Benya, R. V. et al. Mol. Pharmacol. 42:1058 (1992); and Wang, L-H. et al. Biochem. J. 286:641 (1992)].

T1 sequence (P52500 whole entry): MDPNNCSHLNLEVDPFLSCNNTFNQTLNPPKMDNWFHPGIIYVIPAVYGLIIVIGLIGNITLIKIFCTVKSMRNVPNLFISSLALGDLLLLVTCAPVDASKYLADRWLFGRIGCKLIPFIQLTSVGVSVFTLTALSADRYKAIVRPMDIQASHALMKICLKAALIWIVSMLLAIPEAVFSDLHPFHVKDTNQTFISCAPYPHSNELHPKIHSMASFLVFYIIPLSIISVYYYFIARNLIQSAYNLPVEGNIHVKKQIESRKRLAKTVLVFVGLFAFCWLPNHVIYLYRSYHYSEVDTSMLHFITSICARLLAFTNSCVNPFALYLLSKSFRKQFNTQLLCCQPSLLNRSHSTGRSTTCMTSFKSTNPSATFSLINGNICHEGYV

SMILES | Rat Pancreatic Acini Amylase Release Alone (10µM) (GRP Receptor) | Rat Pancreatic Acini Amylase Release Plus Bn(0.3 nM) (GRP Receptor) | fold by which cyclo SS-octa was more potent than the analog (rat NMB receptor) | NMB-R Transfected Cells [^3H]IP Alone (10 µ M) (NMB Receptor) | NMB-R Transfected Cells [^3H]IP Plus NMB (3 nM) (NMB Receptor) | effect on NMB-stimulated increase in [^3H]IP (NMB Receptor; NMB-R transfected cells, 3 nM NMB, peptide 10 µM) | decrease in NMB receptor affinity compared with #1 (rat NMB receptor; structure-function comparison of Table 1 values)
CC(C)[C@@H]1NC(=O)[C@H](CCCCN)NC(=O)[C@@H](Cc2c[nH]c3ccccc23)NC(=O)[C@H](Cc2ccc(O)cc2)NC(=O)[C@@H](NC(=O)[C@H](N)Cc2ccccc2)CSSC[C@@H](C(=O)N[C@@H](Cc2ccc3ccccc3c2)C(N)=O)NC1=O [Analog #4, [D-Phe^1]-cyclo SS-octa] (H-[dF]CY[dW]KVC[2Nal]-NH2; disulfide 2-7; N-terminus assumed) | 4 ± 2 % total | 14 ± 1 % total | 4 fold | 13 ± 1 dpm x 10^3 | 33 ± 4 dpm x 10^3 | – | –
C[C@@H](O)[C@H](NC(=O)[C@@H]1CSSC[C@H](NC(=O)[C@H](N)Cc2ccc3ccccc3c2)C(=O)N[C@@H](Cc2ccc(O)cc2)C(=O)N[C@H](Cc2c[nH]c3ccccc23)C(=O)N[C@@H](CCCCN)C(=O)N[C@@H]([C@@H](C)O)C(=O)N1)C(N)=O [Analog #6, [Thr^6,8]-cyclo-SS-octa] | 3 ± 1 % total | 14 ± 2 % total | 69 fold | 11 ± 2 dpm x 10^3 | 188 ± 30 dpm x 10^3 | had no effect | –
C[C@@H](O)[C@@H]1NC(=O)[C@H](CCCCN)NC(=O)[C@@H](Cc2c[nH]c3ccccc23)NC(=O)[C@H](Cc2ccc(O)cc2)NC(=O)[C@@H](NC(=O)[C@H](N)Cc2ccccc2)CSSC[C@@H](C(=O)N[C@@H](Cc2ccc3ccccc3c2)C(N)=O)NC1=O [Analog #7, [D-Phe^1, Thr^6]-cyclo-SS-octa] (H-[dF]CY[dW]KTC[2Nal]-NH2; disulfide 2-7; N-terminus assumed) | 3 ± 1 % total | 16 ± 1 % total | 18 fold | 15 ± 1 dpm x 10^3 | 99 ± 24 dpm x 10^3 | – | –
CC(C)[C@@H]1NC(=O)[C@H](CCCCN)NC(=O)[C@@H](Cc2c[nH]c3ccccc23)NC(=O)[C@H](Cc2ccc(O)cc2)NC(=O)[C@@H](NC(=O)[C@H](N)Cc2ccc3ccccc3c2)CSSC[C@@H](C(=O)N[C@H](Cc2ccc3ccccc3c2)C(N)=O)NC1=O [Analog #8, [D-Nal^8]-cyclo SS-octa] (H-[d2Nal]CY[dW]KVC[d2Nal]-NH2; disulfide 2-7; N-terminus assumed) | 2 ± 1 % total | 14 ± 1 % total | 9 fold | 10 ± 3 dpm x 10^3 | 67 ± 13 dpm x 10^3 | – | 6 fold
CC(C)[C@@H]1NC(=O)[C@H](CCCCN)NC(=O)[C@@H](Cc2c[nH]c3ccccc23)NC(=O)[C@H](Cc2ccc(O)cc2)NC(=O)[C@@H](NC(=O)[C@@H](N)Cc2ccc3ccccc3c2)CSSC[C@@H](C(=O)N[C@H](Cc2ccc3ccccc3c2)C(N)=O)NC1=O [Analog #9, [Nal^1,D-Nal^8]-cyclo SS-octa] (H-[2Nal]CY[dW]KVC[d2Nal]-NH2; disulfide 2-7; N-terminus assumed) | 3 ± 1 % total | 16 ± 1 % total | 6 fold | 8 ± 2 dpm x 10^3 | 28 ± 6 dpm x 10^3 | – | –
